# Square brackets hold non-standard residues; d marks the D form. Peptide text beside a SMILES is read from it.
# Assays:
# [1] = system: plasma testosterone level in Brown-Norway rats; assay: Oral administration (gavage) of peptides, plasma testosterone; type: in vivo; details: for average testosterone levels across doses: gavage ~10, 220, or 420 μg/kg, after two hrs, rats aged 82-131 days; for average testosterone levels: gavage ~10 μg/kg; for testosterone levels: oral gavage ~580 μg/kg
# Procedure: (§1) Peptides. Peptides were obtained from CanPeptide (Montreal, Quebec) with >95% purity. All peptides were dissolved in molecular grade, sterile double distilled water to obtain a 1 mM stock solution and stored at −20° C. Peptides used for oral screenings were prepared from 1 mM peptide stock and diluted in sterile tap water in a total volume of 1 mL. Peptides used for pharmacokinetic experiments were diluted at 10 mg/ml using sterile tap water. Some of the peptides were chemically modified after synthesis. The following table summarizes the peptides that have been tested:
# (§2) Animal handling, blood collections, surgical procedures, and oral administration of peptides. Brown-Norway rats aged 22-28, 36-42, or 50-56 days-old were purchased from Charles River Laboratories (Senneville, Quebec) and aged until needed. Rats were kept on a 12 L/12 D day cycle with lights on at 7 AM and access to food and water ad libitum.
# (§3) For all experiments, plasma samples were obtained via percutaneous jugular puncture and collected in EDTA KE/1.3 tubes (Sarstedt, Numbrecht, Germany, Cat #5072511). Blood collection time points are indicated in each figure legend. Samples were centrifuged at 1 300 RCF for 10 min, and the plasma was stored in 2 mL Wheaton glass vials (Fisher Scientific, Hampton, NH, Cat #03 337 21A) and kept at −20° C. until needed.
# (§4) For all oral experiments, administration via gavage began between 8:30-8:50 am with a 3-minute delay between each rat. Animals used for pharmacokinetic studies were fasted for 4 hrs before starting gavage at 1 pm with a 3-minute delay between each rat.
# (§5) Plasma steroid measurements. Testosterone levels were measured using Cayman (Ann Arbor, MI) EIA kit Cat #582701, and corticosterone levels were measured using Cayman EIA kit Cat #501320. All samples were measured in duplicate according to the manufacturer's instructions. Samples were diluted until the average control levels fitted the middle of the standard curve. The number of animals used for each experiment is noted in the corresponding figure legend.
# [2] = Peptide stability in plasma; type: in vitro ADME, Brown-Norway rats; details: for half-life in plasma (rank order): 4 μM peptide (KVSQ 12.5 μM) in 100 μL rat plasma, 37° C., 1-120 minutes; for stability / degradation in plasma: in vitro rat plasma incubation
# Procedure: Peptide stability in plasma, oral pharmacokinetics, and quantification. For peptide stability experiments, plasma from Brown-Norway rats age 90-140 days was collected and stored at −20° C. until further use. The plasma was thawed, spun at 12 000 RPM for 10 min, and kept at 4° C. 4 μM of the various peptides were incubated with 100 μL of plasma that was warmed at 37° C. for 10 min before use. After 1, 15, 30, 60, 90 or 120 minutes, the plasma/peptide samples were crashed with 300 μL of 100% methanol, spun at 14 000 RPM for 10 min, and the supernatant collected. The methanol in the supernatant was evaporated and the samples were re-extracted. The final pellet was solubilized in 5 μL methanol followed by the addition of 100 μL of sterile double distilled water. The extracted samples were transferred to plastic tubes and placed in the autoloader of the mass spectrometer.
# (§6) The analytical instrumentation consisted of a Thermo-Scientific ISQ Quantiva Triple Quadrupole Mass Spectrometer (QQQ), incorporating a heated electrospray ionization (HESI) source, and a Thermo-Scientific UltiMate™ 3000 UHPLC system (including, UltiMate™ 3000 RS autosampler). Analytical conditions were developed using a reference standard in a solution containing 5 μM of the corresponding peptide. The chromatography was resolved by isocratic elution of a binary solvent system incorporating (A) 0.1% Formic Acid (aq) and (B) ACN+0.1% FA and using an Agilent Eclipse Plus™ C18 analytical column (100 mm×2.1 mm ID, 1.8 μm particle). A 5 μL injection volume and solvent flow rate of 150 μL/min were used. The MS/MS acquisition time was 7 min and total run time was 8.3 min/injection. The triple Quadrupole MS/MS instrumentation conditions were as follows: the HESI source voltage was 3200 V, the sheath gas […], auxiliary gas 20 L/min, sweep gas 2.0 L/min, the ion transfer temperature was 350° C., the vaporizer temperature was 350° C., the CID gas was 1.5 (mTorr) and the dwell time was 100 msec. The Q1 Resolution (FWHM) was 0.4 (unitless) and the Q3 resolution (FWHM) was 0.7 (unitless). The instrument ran in a selected reaction monitoring (SRM), positive ion detection mode at various collision energies (CE) for the following mass transitions: • Ac-RITQdS-NH2: p84 (m/z 645→m/z 295, m/z 396) • RdVTQ: p72 (m/z 503→m/z 211). • Ac-RdITQ-NH2: p87 (m/z 558→m/z 391, m/z 267) • RVTQ: p64 (m/z 503→m/z 211; m/z 503→m/z 357 and m/z 503→m/z 256) • KVSQ: p95 (m/z 461→m/z 129) and (m/z 461→m/z 234)
# [3] = Oral pharmacokinetics after single oral dose; type: in vivo, Brown-Norway rats; details: single oral dose of 10 mg peptide, gavage
# Procedure: as §4
# For oral pharmacokinetic experiments, jugular blood samples were collected following a single oral dose of 10 mg peptide in 1 ml of vehicle after 5, 15, 30, 45, 60, 90, and 120 minutes. Protein inhibitor cocktail (ROCHE, cOmplete protein inhibitors, Cat #11697498001), which was added into the EDTA collection tubes, was used for KVSQ and RVTQ peptides. Plasma was immediately extracted, and 100 μL of plasma were crashed with 300 μL of 100% methanol, spun at 14 000 RPM for 10 min, and the supernatant harvested. Re-extraction of the precipitant and solubilization of the pellet were as described above.
# as §6, with “The instrument ran in a selected reaction monitoring (SRM), positive ion detection mode at various collision energies (CE) for the following mass transitions: • Ac-RITQdS-NH2: p84 (m/z 645→m/z 295, m/z 396) • RdVTQ: p72 (m/z 503→m/z 211). • Ac-RdITQ-NH2: p87 (m/z 558→m/z 391, m/z 267) • RVTQ: p64 (m/z 503→m/z 211; m/z 503→m/z 357 and m/z 503→m/z 256) • KVSQ: p95 (m/z 461→m/z 129) and (m/z 461→m/z 234)” left out
# [4] = system: plasma corticosterone level in Brown-Norway rats; assay: Oral administration (gavage) of peptides, plasma corticosterone; type: in vivo; details: gavage with increasing concentrations, 2 hrs
# Procedure: as §1, §2
# For all experiments, plasma samples were obtained via percutaneous jugular puncture and collected in EDTA KE/1.3 tubes (Sarstedt, Numbrecht, Germany, Cat #5072511). […]
# Plasma steroid measurements. Testosterone levels were measured using Cayman (Ann Arbor, MI) EIA kit Cat #582701, and corticosterone levels were measured using Cayman EIA kit Cat #501320. All samples were measured in duplicate according to the manufacturer's instructions. […]
# [5] = system: plasma testosterone level in Brown-Norway rats; assay: Subcutaneous osmotic pump infusion of tetrapeptides, plasma testosterone (Example I); type: in vivo
# Procedure: Osmotic pumps. Model 2006 osmotic pumps, infusing 0.15 μL/hr, were purchased from Alzet (Cupertino, CA). The peptide concentration loaded into the pumps was adjusted to deliver the doses indicated in each figure. The pump infusion rates varied by production lot and were adjusted accordingly. Pumps were loaded 24 hrs prior to surgical implantation under sterile conditions and were kept at 37° C. in PBS.
# as §2, §3
# Brown-Norway rats aged ˜29 day-old were implanted with osmotic infusion pumps in the interscapular region under general anesthesia with isoflurane following antisepsis using iodine. The surgical wound was closed with two to three staples that were removed a week after the surgery. Subcutaneous carprofen (Zoetis, Parsippany, NJ) was given before the surgical procedure and in the following two days for pain management.
# as §5
# [6] = system: plasma testosterone level in Brown-Norway rats; assay: Subcutaneous osmotic pump infusion of TV159-172 derivatives and N163-166, plasma testosterone (Example II); type: in vivo; details: 309 ng/kg/day, 7 days after implantation
# Procedure: (§7) Animal handling, serum, plasma, and intratesticular sample collection. Brown-Norway rats aged 36-42 days old were purchased from Charles River and aged until ˜60 days old. Rats were kept on a 12 L/12 D day cycle with lights on at 7 AM and had access to food and water ad libitum.
# (§8) Jugular samples were collected via percutaneous puncture and samples were collected in EDTA coated tubes (plasma) and centrifuged at 1,300 RCF for 10 min and stored in 2 mL Wheaton glass vials (Fisher Scientific, Hampton, NH, Cat #03 337 21A) and kept at −20° C. Animals were handled according to protocols approved by the McGill University Animal Care and Use Committee, which included standard operating procedures for the amount and frequency of blood sample collections.
# (§9) Hormone measurements. Testosterone levels were measured using Cayman (Ann Arbor, MI) EIA kit Cat #582701 and corticosterone levels were measured using Cayman EIA kit Cat #501320. Plasma fluid samples were diluted until controls fitted the middle of the standard curve used.
# (§10) Osmotic pumps. Alzet 2006 osmotic pumps were purchased from Alzet (Cupertino, CA) with an infusion rate of 0.15 μL/hr. The peptide concentration loaded into the pumps accounted for weight gain at the time of collection and was adjusted to deliver the doses indicated in each figure. The pump infusion rates varied by production lot and were adjusted accordingly. […]
# [7] = system: plasma corticosterone level in Brown-Norway rats; assay: Subcutaneous osmotic pump infusion of TV159-172 derivatives and N163-166, plasma corticosterone (Example II); type: in vivo; details: 40 days after implantation
# Procedure: as §7, §8, §9, §10
# [8] = samples at age 54 days (first round), ~370 ng/kg/day
compound,measurement,setting,value
CC[C@H](C)[C@H](NC(=O)[C@H](CCCNC(=N)N)NC(C)=O)C(=O)N[C@H](C(=O)N[C@@H](CCC(N)=O)C(=O)N[C@H](CO)C(N)=O)[C@@H](C)O [Ac-RITQdS-NH2] (Ac-RITQ[dS]-NH2),average testosterone levels across doses,[1],increased average testosterone levels
same,average testosterone levels,"[1]; third screening, 2 hrs","increased, although not significantly"
same,half-life in plasma (rank order),[2],Ac-RITQdS-NH2>RdVTQ>Ac-RdITQ-NH2>RITQ>RVTQ>KVSQ
same,stability / degradation in plasma,[2],most stable peptide
same,Tmax,"[3]; Brown-Norway, rat, plasma, read-out: time to peak concentration in blood (converted)",~15 min
CC[C@@H](C)[C@@H](NC(=O)[C@H](CCCNC(=N)N)NC(C)=O)C(=O)N[C@H](C(=O)N[C@@H](CCC(N)=O)C(N)=O)[C@@H](C)O [Ac-RdITQ-NH2] (Ac-R[dI]TQ-NH2),average testosterone levels across doses,[1],increased average testosterone levels
same,average testosterone levels,"[1]; third screening, 2 hrs","increased, although not significantly"
same,half-life in plasma (rank order),[2],Ac-RITQdS-NH2>RdVTQ>Ac-RdITQ-NH2>RITQ>RVTQ>KVSQ
CC(C)[C@H](NC(=O)[C@@H](N)CCCCN)C(=O)N[C@@H](CO)C(=O)N[C@@H](CCC(N)=O)C(=O)O [KVSQ] (H-KVSQ-OH),average testosterone levels across doses,[1],increased average testosterone levels
same,average testosterone levels,"[1]; third screening, 2 hrs","increased, although not significantly"
same,half-life in plasma (rank order),[2],Ac-RITQdS-NH2>RdVTQ>Ac-RdITQ-NH2>RITQ>RVTQ>KVSQ
same,stability / degradation in plasma,[2],rapid degradation
same,circulating peptide levels (detection),[3],not detected
CC[C@H](C)[C@H](NC(=O)[C@@H](N)CCCNC(=N)N)C(=O)N[C@H](C(=O)N[C@@H](CCC(N)=O)C(=O)O)[C@@H](C)O [RITQ] (H-RITQ-OH),"corticosterone levels, dose-response",[4],no corresponding significant changes
same,circulating testosterone levels,[5]; [8],non-significant increase
same,circulating testosterone levels,"[5]; samples at age 65 days (second round), ~330 ng/kg/day",significant increase
same,"testosterone levels, dose-response","[1]; gavage 10 μg/kg, 2 hrs",significant increase
same,"testosterone levels, dose-response","[1]; gavage ~220 μg/kg, 2 hrs",non-significant decrease
same,"testosterone levels, dose-response","[1]; gavage ~520 μg/kg, 2 hrs",significant increase
same,average testosterone levels,"[1]; third screening, 2 hrs","increased, although not significantly"
same,steroid (testosterone) levels,"[1]; third screening, gavage ~220 μg/kg, 2 hrs",decrease in steroid levels
same,half-life in plasma (rank order),[2],Ac-RITQdS-NH2>RdVTQ>Ac-RdITQ-NH2>RITQ>RVTQ>KVSQ
same,stability / degradation in plasma,[2],rapid time-dependent degradation
CC(C)[C@H](NC(=O)[C@@H](N)CCCNC(=N)N)C(=O)N[C@H](C(=O)N[C@@H](CCC(N)=O)C(=O)O)[C@@H](C)O [RVTQ] (H-RVTQ-OH),testosterone levels,[6],significantly increased
same,increase in plasma testosterone levels,"[5]; 377 ng/kg/d, ~54 day-old rats, vs water",two-fold
same,testosterone levels,[1]; 3 hrs sampling time,did not show an effect
same,half-life in plasma (rank order),[2],Ac-RITQdS-NH2>RdVTQ>Ac-RdITQ-NH2>RITQ>RVTQ>KVSQ
same,stability / degradation in plasma,[2],rapid time-dependent degradation
same,corticosterone levels,[7]; 23 ng/kg/day,decreased
same,corticosterone levels,[7]; treatment inducing testosterone formation (309 ng/kg/day),not affected
same,circulating peptide levels (detection),[3],not detected
CC(C)[C@@H](NC(=O)[C@@H](N)CCCNC(=N)N)C(=O)N[C@H](C(=O)N[C@@H](CCC(N)=O)C(=O)O)[C@@H](C)O [RdVTQ] (H-R[dV]TQ-OH),"corticosterone levels, dose-response",[4],no corresponding significant changes
same,"testosterone levels, dose-response","[1]; gavage 10 μg/kg, 2 hrs",trend to increase
same,"testosterone levels, dose-response","[1]; gavage 800 μg/kg, 2 hrs",significant increases
same,"testosterone levels, dose-response","[1]; gavage ~400 μg/kg, 2 hrs",significant increases
same,average testosterone levels across doses,[1],increased average testosterone levels
same,"average testosterone levels, dose-response","[1]; gavage, all doses tested, 2 hrs",increased the average testosterone levels at all doses tested
same,average testosterone levels,"[1]; third screening, 2 hrs","increased, although not significantly"
same,half-life in plasma (rank order),[2],Ac-RITQdS-NH2>RdVTQ>Ac-RdITQ-NH2>RITQ>RVTQ>KVSQ
Ac-KdITQ-NH2,average testosterone levels,"[1]; third screening, 2 hrs","increased, although not significantly"
KITQ,circulating testosterone levels,[5]; [8],significant increase
RVTQdS-NH2,testosterone levels,[1]; 2 hr post-treatment,best significant increase in testosterone levels
same,testosterone levels,[1]; 3 hrs sampling time,significantly increased testosterone levels

# Reference: patent publication US12324839B2, “Testosterone-inducing peptide compounds and associated combinations” (THE ROYAL INSTITUTION FOR THE ADVANCEMENT OF …, priority 2018, dated 2025)
